Results from patent US9586907B2, “Isothiocyanate compounds, pharmaceutical compositions, and uses thereof” (priority 2006, dated 2017).
≈ marks a conversion by molar mass, not a printed value. Where two headings read alike, the source gives them in different places.

Assays:
[1] = tested on: clinical isolates of bacteria and fungus (including yeasts); assay: General antimicrobial activity, semi-quantitative score on collection of clinical isolates; type: cell-based; settings: for General antimicrobial activity: semi-quantitative score from number of sensitive bacterial strains at 100 and 200 μM, deduced from number of sensitive bacterial species and average MIC; for General antimicrobial activity: key: −: indicating no activity; +++++: indicating highest activity
Procedure: The growth inhibitory effect of a number of various ITC compounds were tested on large collection of clinical isolates of bacteria and fungus (including yeasts), in order to establish a systematic structure-activity relationship for the ITC compounds. […] To assess the average activity for an individual ITC compound, the semi-quantitative score was calculated for each compound based on the number of sensitive bacterial strains at concentrations of 100 and 200 μM.

[2] = tested on: Shigella sp., BK 12440; assay: MIC, Shigella sp., BK 12440; type: cell-based; settings: Gram −, 24 hours of incubation
[3] = tested on: Shigella sp., BK 12441; assay: MIC, Shigella sp., BK 12441; type: cell-based; settings: Gram −, 24 hours of incubation
[4] = tested on: Bacillus subtilis BK11590; assay: MIC, Bacillus subtilis BK11590; type: cell-based; settings: Gram +, 24 hours of incubation
[5] = tested on: M. intracellularie; assay: MIC, M. intracellularie; type: cell-based; settings: M. intracellularie
[6] = tested on: M. avium; assay: MIC, M. avium; type: cell-based; settings: M. avium
[7] = tested on: M. scrofulaceum; assay: MIC, M. scrofulaceum; type: cell-based; settings: M. scrofulaceum
[8] = tested on: M. cansassi; assay: MIC, M. cansassi; type: cell-based; settings: M. cansassi
[9] = tested on: M. fortuitum; assay: MIC, M. fortuitum; type: cell-based; settings: M. fortuitum
[10] = tested on: M. tuberculosis W4; assay: MIC, M. tuberculosis W4; type: cell-based
Procedure: (§1) Next, several of the bifunctional ITC compounds were tested for their ability to inhibit the growth of some clinical isolates of Mycobacteria, the results of which are summarized in Table 3 below.

[11] = tested on: M. tuberculosis 210; assay: MIC, M. tuberculosis 210; type: cell-based
Procedure: as §1

[12] = tested on: M. tuberculosis W; assay: MIC, M. tuberculosis W; type: cell-based
Procedure: as §1

[13] = tested on: M. tuberculosis H37Rv; assay: MIC, M. tuberculosis H37Rv; type: cell-based
Procedure: as §1

[14] = tested on: M. tuberculosis CDC1551; assay: MIC, M. tuberculosis CDC1551; type: cell-based
Procedure: as §1

[15] = tested on: M. tuberculosis P; assay: MIC, M. tuberculosis P; type: cell-based
Procedure: as §1

[16] = tested on: M. tuberculosis AB; assay: MIC, M. tuberculosis AB; type: cell-based
Procedure: as §1

[17] = tested on: M. bovis BCG; assay: microbe, parasite or virus in culture; type: cell-based
[18] = tested on: MRSA (Staphylococcus aureus) BK12060; assay: MIC, MRSA BK12060
[19] = tested on: MRSA (Staphylococcus aureus) BK12064; assay: MIC, MRSA BK12064
[20] = tested on: Escherichia coli K12; assay: MIC, Escherichia coli K12
[21] = tested on: Bacillus cereus 4342; assay: MIC, Bacillus cereus 4342
[22] = tested on: Escherichia coli BK12336; assay: MIC, Escherichia coli BK12336
[23] = tested on: Enterococcus sp., BK11936; assay: MIC, Enterococcus sp., BK11936
[24] = tested on: Enterococcus sp., BK11940; assay: MIC, Enterococcus sp., BK11940
[25] = tested on: Acinetobacter sp., BK12786; assay: MIC, Acinetobacter sp., BK12786
[26] = tested on: Acinetobacter sp., BK12787; assay: MIC, Acinetobacter sp., BK12787
[27] = tested on: Streptococcus sp., BK12233; assay: MIC, Streptococcus sp., BK12233
[28] = tested on: Streptococcus sp., BK12235; assay: MIC, Streptococcus sp., BK12235
[29] = tested on: Serattia marcescens BK12421; assay: MIC, Serattia marcescens BK12421
[30] = tested on: Serattia marcescens BK12426; assay: MIC, Serattia marcescens BK12426
[31] = tested on: Enterobacter cloacii BK12313; assay: MIC, Enterobacter cloacii BK12313
[32] = tested on: Enterobacter cloacii BK12315; assay: MIC, Enterobacter cloacii BK12315
[33] = tested on: Klebsiella pneumonii BK12260; assay: MIC, Klebsiella pneumonii BK12260
[34] = tested on: Klebsiella pneumonii BK12261; assay: MIC, Klebsiella pneumonii BK12261
[35] = tested on: Pseudomonas aeruginosa BK12347; assay: MIC, Pseudomonas aeruginosa BK12347
[36] = tested on: Pseudomonas aeruginosa BK12348; assay: MIC, Pseudomonas aeruginosa BK12348
[37] = tested on: Staphylococcus epidermidis BK12799; assay: MIC, Staphylococcus epidermidis BK12799
[38] = Mycobacterium tuberculosis, read-out: MIC
[39] = Staphylococcus aureus, MRSA, 24 h
[40] = MRSA BK12060, Gram +, 24 hours of incubation
[41] = MRSA BK12064, Gram +, 24 hours of incubation
[42] = Escherichia coli K12, Gram −, 24 hours of incubation
[43] = Bacillus cereus 4342, Gram +, 24 hours of incubation
[44] = Escherichia coli BK12336, Gram −, 24 hours of incubation
[45] = Enterococcus sp., BK11936, Gram +, 24 hours of incubation
[46] = Enterococcus sp., BK11940, Gram +, 24 hours of incubation
[47] = Acinetobacter sp., BK12786, Gram −, 24 hours of incubation
[48] = Acinetobacter sp., BK12787, Gram −, 24 hours of incubation
[49] = Streptococcus sp., BK12233, Gram +, grown on Tryptic Soy agar medium, 24 hours
[50] = Streptococcus sp., BK12235, Gram +, grown on Tryptic Soy agar medium, 24 hours
[51] = Serattia marcescens BK12421, Gram −, 24 hours of incubation
[52] = Serattia marcescens BK12426, Gram −, 24 hours of incubation
[53] = Enterobacter cloacii BK12313, Gram −, 24 hours of incubation
[54] = Enterobacter cloacii BK12315, Gram −, 24 hours of incubation
[55] = Klebsiella pneumonii BK12260, Gram −, 24 hours of incubation
[56] = Klebsiella pneumonii BK12261, Gram −, 24 hours of incubation
[57] = Pseudomonas aeruginosa BK12347, Gram −, 24 hours of incubation
[58] = Pseudomonas aeruginosa BK12348, Gram −, 24 hours of incubation
[59] = Staphylococcus epidermidis BK12799, Gram +, 24 hours of incubation

S=C=NCc1ccc(CN=C=S)cc1 [Compound 37]
MIC ([1]; read-out: MIC values towards the microorganisms): 1 to 4 µg/mL (≈ 4.54 to 18.2 µM)
General antimicrobial activity [1]: +++++
MIC ([2]; read-out: MIC): 16 µg/mL (≈ 72.6 µM)
MIC ([3]; read-out: MIC): 16 µg/mL (≈ 72.6 µM)
MIC ([4]; read-out: MIC): 4 µg/mL (≈ 18.2 µM)
MIC ([5]; read-out: MIC): 32 µg/mL (≈ 145 µM)
MIC ([6]; Mycobacterium avium, read-out: MIC): 32 µg/mL (≈ 145 µM)
MIC ([7]; Mycobacterium scrofulaceum, read-out: MIC): 16 µg/mL (≈ 72.6 µM)
MIC ([8]; read-out: MIC): 4 µg/mL (≈ 18.2 µM)
MIC ([9]; Mycolicibacterium fortuitum, read-out: MIC): 32 µg/mL (≈ 145 µM)
MIC [10, 38]: 2 µg/mL (≈ 9.08 µM)
MIC [11, 38]: 2 µg/mL (≈ 9.08 µM)
MIC [12, 38]: 1 µg/mL (≈ 4.54 µM)
MIC [13, 38]: 2 µg/mL (≈ 9.08 µM)
MIC [14, 38]: 4 µg/mL (≈ 18.2 µM)
MIC [15, 38]: 2 µg/mL (≈ 9.08 µM)
MIC [16, 38]: 2 µg/mL (≈ 9.08 µM)
MIC ([17]; Mycobacterium tuberculosis variant bovis BCG, BCG): 2 µg/mL (≈ 9.08 µM)
MIC [18, 39]: 8 µg/mL (≈ 36.3 µM)
MIC [19, 39]: 4 µg/mL (≈ 18.2 µM)
MIC ([20]; Escherichia coli, K12, 24 h): 16 µg/mL (≈ 72.6 µM)
MIC ([21]; Bacillus cereus, 4342, 24 h): 2 µg/mL (≈ 9.08 µM)
MIC ([22]; Escherichia coli, BK12336, 24 h): 8 to 16 µg/mL (≈ 36.3 to 72.6 µM)
MIC ([23]; Enterococcus, 24 h): 16 µg/mL (≈ 72.6 µM)
MIC ([24]; Enterococcus, 24 h): 16 µg/mL (≈ 72.6 µM)
MIC ([25]; Acinetobacter, 24 h): > 64 µg/mL
MIC ([26]; Acinetobacter, 24 h): > 64 µg/mL
MIC ([27]; Streptococcus, 24 h): < 0.5 µg/mL
MIC ([28]; Streptococcus, 24 h): < 0.5 µg/mL
MIC ([29]; 24 h): 64 µg/mL (≈ 290 µM)
MIC ([30]; 24 h): 64 µg/mL (≈ 290 µM)
MIC ([31]; Enterobacter, BK12313, 24 h): > 64 µg/mL
MIC ([32]; Enterobacter, BK12315, 24 h): > 64 µg/mL
MIC ([33]; Klebsiella, BK12260, 24 h): > 64 µg/mL
MIC ([34]; Klebsiella, BK12261, 24 h): > 64 µg/mL
MIC ([35]; Pseudomonas aeruginosa, BK12347, 24 h): > 64 µg/mL
MIC ([36]; Pseudomonas aeruginosa, BK12348, 24 h): > 64 µg/mL
MIC ([37]; Staphylococcus epidermidis, BK12799, 24 h): 0.5 µg/mL (≈ 2.27 µM)

S=C=NCCCCCCCN=C=S [Compound 41, S═C═N—(CH2)7—N═C═S]
General antimicrobial activity [1]: +++++
MIC [2]: 64 µg/mL (≈ 299 µM)
MIC [3]: 64 µg/mL (≈ 299 µM)
MIC [4]: 2 µg/mL (≈ 9.33 µM)
MIC [5]: 32 µg/mL (≈ 149 µM)
MIC [6]: 32 µg/mL (≈ 149 µM)
MIC [7]: 32 µg/mL (≈ 149 µM)
MIC [8]: 8 µg/mL (≈ 37.3 µM)
MIC [9]: 32 µg/mL (≈ 149 µM)
MIC [10]: 2 µg/mL (≈ 9.33 µM)
MIC [11]: 4 µg/mL (≈ 18.7 µM)
MIC [12]: 2 µg/mL (≈ 9.33 µM)
MIC [13]: 2 µg/mL (≈ 9.33 µM)
MIC [14]: 2 µg/mL (≈ 9.33 µM)
MIC [15]: 4 µg/mL (≈ 18.7 µM)
MIC [16]: 2 µg/mL (≈ 9.33 µM)
MIC [17]: 2 µg/mL (≈ 9.33 µM)
MIC [18, 40]: 4 µg/mL (≈ 18.7 µM)
MIC [19, 41]: 4 µg/mL (≈ 18.7 µM)
MIC [20, 42]: >64 µg/mL
MIC [21, 43]: 2 µg/mL (≈ 9.33 µM)
MIC [22, 44]: >64 µg/mL
MIC [23, 45]: 8 µg/mL (≈ 37.3 µM)
MIC [24, 46]: 8 µg/mL (≈ 37.3 µM)
MIC [25, 47]: 32 µg/mL (≈ 149 µM)
MIC [26, 48]: 32 µg/mL (≈ 149 µM)
MIC [27, 49]: 1 to 2 µg/mL
MIC [28, 50]: 1 to 2 µg/mL
MIC [29, 51]: >64 µg/mL
MIC [30, 52]: >64 µg/mL
MIC [31, 53]: >64 µg/mL
MIC [32, 54]: >64 µg/mL
MIC [33, 55]: >64 µg/mL
MIC [34, 56]: >64 µg/mL
MIC [35, 57]: 64 µg/mL (≈ 299 µM)
MIC [36, 58]: 64 µg/mL (≈ 299 µM)
MIC [37, 59]: 1 µg/mL (≈ 4.67 µM)

S=C=NCCCCCCCCN=C=S [Compound 42, S═C═N—(CH2)8—N═C═S]
General antimicrobial activity [1]: +++++
MIC [2]: >64 µg/mL
MIC [3]: >64 µg/mL
MIC [4]: 2 µg/mL (≈ 8.76 µM)
MIC [5]: 32 µg/mL (≈ 140 µM)
MIC [6]: 32 µg/mL (≈ 140 µM)
MIC [7]: 32 µg/mL (≈ 140 µM)
MIC [8]: 4 µg/mL (≈ 17.5 µM)
MIC [9]: 32 µg/mL (≈ 140 µM)
MIC [10]: 4 µg/mL (≈ 17.5 µM)
MIC [11]: 4 µg/mL (≈ 17.5 µM)
MIC [12]: 4 µg/mL (≈ 17.5 µM)
MIC [13]: 4 µg/mL (≈ 17.5 µM)
MIC [14]: 8 µg/mL (≈ 35 µM)
MIC [15]: 4 µg/mL (≈ 17.5 µM)
MIC [16]: 4 µg/mL (≈ 17.5 µM)
MIC [17]: 4 µg/mL (≈ 17.5 µM)
MIC [18, 40]: 2 to 4 µg/mL
MIC [19, 41]: 4 µg/mL (≈ 17.5 µM)
MIC [20, 42]: >64 µg/mL
MIC [21, 43]: 2 µg/mL (≈ 8.76 µM)
MIC [22, 44]: >64 µg/mL
MIC [23, 45]: 8 µg/mL (≈ 35 µM)
MIC [24, 46]: 8 µg/mL (≈ 35 µM)
MIC [25, 47]: >64 µg/mL
MIC [26, 48]: >64 µg/mL
MIC [27, 49]: 1 to 2 µg/mL
MIC [28, 50]: 2 µg/mL (≈ 8.76 µM)
MIC [29, 51]: 64 µg/mL (≈ 280 µM)
MIC [30, 52]: 64 µg/mL (≈ 280 µM)
MIC [31, 53]: 64 µg/mL (≈ 280 µM)
MIC [32, 54]: 64 µg/mL (≈ 280 µM)
MIC [33, 55]: >64 µg/mL
MIC [34, 56]: >64 µg/mL
MIC [35, 57]: >64 µg/mL
MIC [36, 58]: >64 µg/mL
MIC [37, 59]: 2 µg/mL (≈ 8.76 µM)
